IC50, CC50 and inhibition data for 6 molecules are collected here from ChEMBL document CHEMBL2016437, “Synthesis and biological evaluation of novel small non-peptidic HIV-1 PIs: the benzothiophene ring as an effective moiety” (Bioorg Med Chem Lett, 2012).

The target of one data set is Protease (Human immunodeficiency virus 1, UniProt Q9YQ12). Nature of the data set: Inhibition of wild type HIV-1 protease assessed as hydrolysis of fluorogenic substrate Abz-Thr-Ile-Nle-Phe(NO2)-Gln-Arg after 10 mins by fluorescence assay.
Sequence of Protease (Q9YQ12 whole entry): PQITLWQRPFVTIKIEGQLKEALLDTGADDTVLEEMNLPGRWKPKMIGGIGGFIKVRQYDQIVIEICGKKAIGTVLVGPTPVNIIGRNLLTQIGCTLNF
A short description of data set [1]: Cytotoxicity against human U937 cells after 1 to 4 hrs by MTS assay. The format is cell-based, U-937.
The subject of data set [2] is Human immunodeficiency virus type 1 protease (Human immunodeficiency virus 1), Q72874 [V32I]. Nature of the data set: Inhibition of HIV-1 protease V32I mutant assessed as hydrolysis of fluorogenic substrate Abz-Thr-Ile-Nle-Phe(NO2)-Gln-Arg after 10 mins by fluorescence assay.
In data set [3] the test system is Human immunodeficiency virus type 1 protease (Human immunodeficiency virus 1), Q72874 [V82A]. Nature of the data set: Inhibition of HIV-1 protease V82A mutant assessed as hydrolysis of fluorogenic substrate Abz-Thr-Ile-Nle-Phe(NO2)-Gln-Arg after 10 mins by fluorescence assay.

Broadly, the IC50 is the concentration needed to halve the response being measured. For orientation: CC50 means the concentration that lowers cell viability or growth by half. Higher therefore signals better tolerance by the cells.

Activity calls are given as the source filed them. The calls are words filed in the database; no cut-off is given here.

`COc1ccc(S(=O)(=O)N(CC(C)C)C[C@@H](O)COc2ccc3c(ccn3Cc3ccccc3)c2)cc1OC`: the IC50 at Protease is more than 1000 µM.
Consider `COc1ccc(S(=O)(=O)N(CC(C)C)C[C@@H](O)COc2ccc3c(ccn3C)c2)cc1OC`, for which the IC50 on Protease was more than 1000 µM.
Same read-out and setting: under `COc1ccc(S(=O)(=O)N(CC(C)C)C[C@@H](O)COc2ccc3occc3c2)cc1OC` stands 130 µM.
In data set [1], `COc1ccc(S(=O)(=O)N(CC(C)C)C[C@@H](O)COc2ccc3sccc3c2)cc1OC` yielded a CC50 of more than 90 µM. Moreover, the IC50 on Protease came to 0.06 µM. The inhibition result in data set [2] and in data set [3] was “inactive” in each case.
On to `Cc1c(O)cccc1C(=O)N[C@@H](CSc1ccccc1)[C@H](O)CN1C[C@H]2CCCC[C@H]2C[C@H]1C(=O)NC(C)(C)C` [NELFINAVIR], for which the IC50 at Protease amounted to 0.009 µM.
Still for that read-out and setting: under `COc1ccc(S(=O)(=O)N(CC(C)C)C[C@@H](O)COc2ccc3[nH]ccc3c2)cc1OC` stands 1 µM.
